Experimental data reported in patent US20130172407A1, “Inhibition of Cancer Cell Proliferation Using Oleoylethanolamide” (China Medical University, priority 2011, published 2013).

Assays:
Type in all cases: cell-based, Human
HT-29 cells [1] = test: MTT cell viability analysis, HT-29 cells; details: 24 hours, OEA 50, 100, 200 μM and lycopene 2, 5 μM compared to control group, synergy groups (200 μM OEA + 2 or 5 μM lycopene) compared to OEA group 3 and lycopene groups 1 and 2, FIG. 1
Protocol: (§1) HT-29 cells were cultured in a 75-cm^2 flask containing McCoy's medium (Invitrogen Inc., Carlsbad, Calif., USA) supplemented with 10% Fetal Bovine Serum (FBS), 2 mM glutamine and 1.5 g/L sodium bicarbonate. The remaining cells were cultured in a 75-cm^2 flask containing RPMI 1640 medium (Hyclone, Grand Island, N.Y., USA) supplemented with 10% Fetal Bovine Serum (FBS), 2 mM glutamine and 1.5 g/L sodium bicarbonate. These cells were cultured in an incubator with culture conditions set at 37° C. and 5% CO2. […]
(§2) • {3-[4,5-Dimethylthiazol-2-yl]-2,5-diphenyltetrazolium bromide} (MTT, 0.5 mg/mL, 200 μL) was added to the cell culture of each group, followed by incubation in an incubator (37° C., 5% CO2) for 2 hours. […] The absorbance at 570 nm (OD570) for each well was detected using a microplate reader (Tecan Inc., Mannedorf, Switzerland).
(§3) Cell viability percentage (%) was calculated by substituting the detected absorbance (OD570) to the following formula (1):
(§4) A=(B/C)×100 Formula (1): • wherein: • A=cell viability percentage (%) • B=the detected OD570 absorbance of each group • C=the detected OD570 absorbance of control group

HCT 116 cells = test: MTT cell viability analysis, HCT 116 cells; details: 24 hours, OEA 50, 100, 200 μM and lycopene 2, 5 μM compared to control group, synergy groups (200 μM OEA + 2 or 5 μM lycopene) compared to OEA group 3 and lycopene groups 1 and 2, FIG. 2
Protocol: as §1, §2, §3, §4

SW-480 cells = test: MTT cell viability analysis, SW-480 cells; details: 24 hours, OEA 50, 100, 200 μM and lycopene 2, 5 μM compared to control group, synergy groups (200 μM OEA + 2 or 5 μM lycopene) compared to OEA group 3 and lycopene groups 1 and 2, FIG. 3
Protocol: as §1, §2, §3, §4

A549 cells = test: MTT cell viability analysis, A549 cells; details: 24 hours, OEA 50, 100, 200 μM and lycopene 2, 5 μM compared to control group, synergy groups (200 μM OEA + 2 or 5 μM lycopene) compared to OEA group 3 and lycopene groups 1 and 2, FIG. 4
Protocol: as §1, §2, §3, §4

MDA-MB-231 cells = test: MTT cell viability analysis, MDA-MB-231 cells; details: 24 hours, OEA 50, 100, 200 μM and lycopene 2, 5 μM compared to control group, synergy groups (200 μM OEA + 2 or 5 μM lycopene) compared to OEA group 3 and lycopene groups 1 and 2, FIG. 5
Protocol: as §1, §2, §3, §4

Huh-7 cells = test: MTT cell viability analysis, Huh-7 cells; details: 24 hours, OEA 50, 100, 200 μM and lycopene 2, 5 μM compared to control group, synergy groups (200 μM OEA + 2 or 5 μM lycopene) compared to OEA group 3 and lycopene groups 1 and 2, FIG. 6
Protocol: as §1, §2, §3, §4

CAL 27 cells = test: MTT cell viability analysis, CAL 27 cells; details: 24 hours, OEA 50, 100, 200 μM and lycopene 2, 5 μM compared to control group, synergy groups (200 μM OEA + 2 or 5 μM lycopene) compared to OEA group 3 and lycopene groups 1 and 2, FIG. 7
Protocol: as §1, §2, §3, §4

AGS cells = test: MTT cell viability analysis, AGS cells; details: 24 hours, OEA 50, 100, 200 μM and lycopene 2, 5 μM compared to control group, synergy groups (200 μM OEA + 2 or 5 μM lycopene) compared to OEA group 3 and lycopene groups 1 and 2, FIG. 8
Protocol: as §1, §2, §3, §4

HT-29 cells [2] = test: Flow cytometry cell cycle analysis (PI staining, Sub-G1 phase); details: 24 hours, OEA 50, 100, 200 μM, lycopene 2, 5 μM, synergy groups (200 μM OEA + 2 or 5 μM lycopene) compared to OEA groups 1-3 and lycopene groups 1 and 2, FIG. 9
Protocol: In order to understand the effect of OEA and its combination with lycopene on the cell cycle and proliferation of human colorectal cancer cell line HT-29, HT-29 cell culture treated with different solutions obtained from Item B of Example 2 was used for the following experiments.
Each group of the HT-29 cell culture obtained from Item B of Example 2 was washed with PBS twice followed by fixing the cells with 70% (w/v) cold ethanol for 1 hour. Then, the obtained fixed cells were washed with cold PBS followed by centrifugation at 300 g for 5 minutes. […]
Subsequently, the obtained dyed cells were subjected to cell cycle analysis using BD FACSCanto™ flow cytometer (BD Biosciences, Cat. No. 338960), and the DNA content of 1×10^4 cells was analyzed in each analysis. The cells would emit fluorescence when excited by laser beam of argon ion at 488 nm. Cell cycle profile was analyzed from DNA content histograms using BD FACSDiVa™ software (Becton Dickinson, Cat. No. 643629). […] The percentage of the cells in Sub-G1 phase was analyzed using ModFit LT software.
The obtained experimental data was analyzed according to the method described in “Statistical Analysis” in the section of “General experimental procedure”.

cyclin D1 = test: Western Blotting analysis of nuclear protein, cyclin D1 expression in HT-29 cells; details: HT-29 nuclear protein; OEA 200 μM, lycopene 2 and 5 μM compared to control group; synergy groups compared to OEA group 3 and lycopene groups 1 and 2; FIG. 10
Protocol: (§5) In order to detect the protein expression of HT-29 cells, the HT-29 cell culture treated with different solutions for use in the instant experiment was obtained substantially according to “B. Treatment of various cancer cell lines with OEA solutions, lycopene solutions and combined solutions” in the above Example 2. The difference was that the cells of each group were cultured in a culture dish having a diameter of 10 cm. Experimental groups were added with different solutions according to those shown in Table 3 and the amount added was 10 mL.
(§6) Then, the HT-29 cell cultures of the control group, OEA group 3, lycopene groups 1 and 2 and synergy groups 1 and 2 were washed with PBS twice followed by adding 75 μL lysis buffer (containing PBS, 1% Ipegal CA-630 (Sigma, St. Louis, Mo.), 0.5% sodium deoxycholate, 0.1% SDS, 100 μM phenylmethylsulfonyl fluoride, 20 μg/mL aprotinin, 1 mM PMSF and 3 μM sodium orthovanadate) and uniformly mixing. The resultant cell mixtures were subjected to nuclear protein extraction using NE-PER® Nuclear and Cytoplasmic Extraction Reagents (Thermo Scientific, Cat. No. 78833) according to the manufacturer's operation guide, thereby obtaining nuclear protein samples. […]

p-NF-κB p65 = test: Western Blotting analysis of nuclear protein, p-NF-κB p65 expression in HT-29 cells; details: HT-29 nuclear protein; OEA 200 μM, lycopene 2 and 5 μM compared to control group; synergy groups compared to OEA group 3 and lycopene groups 1 and 2; FIG. 10
Protocol: as §5, §6

HT-29 cells [3] = test: FITC Annexin V / PI flow cytometry, cell death (apoptosis); details: FITC Annexin V and PI positive, OEA 200 μM and lycopene 5 μM compared to control group, synergy groups compared to OEA group 3 and lycopene group 2, FIG. 11
Protocol: In order to further investigate the usefulness of OEA and its combination with lycopene in inducing cell apoptosis of human colorectal cancer cell line HT-29, HT-29 cell cultures of control group, OEA group 3, lycopene groups 1 and 2 and synergy groups 1 and 2 obtained according to the above Item B in Example 2 were used for subsequent experiments.
First, the cell culture of each group was collected and washed with cold PBS twice followed by centrifugation at 300 g for 5 minutes. The supernatant was removed and 1× Annexin V Binding Buffer (BD Pharmingen™) was added to sufficiently re-suspend the cell pellet thereby obtaining a cell suspension having a cell concentration of 1×10^5 cells/mL. […]
Then, the stained cells were analyzed using BD FACSAria™ flow cytometry, wherein cells stained with FITC Annexin V and PI, i.e., FITC Annexin V positive and PI positive, represent cells that were induced with apoptosis and died, while cells that could not be stained with FITC Annexin V and PI, i.e., FITC Annexin V negative and PI negative, represent viable cells. The number of cells stained with FITC Annexin V and PI was calculated using BD FACSDiVa™ software.
The cell death percentage (%) of each group was calculated by substituting the detected cell number to the following formula (2): […]

Row | Compound | cell viability percentage (HT-29 cells [1]) | cell viability percentage (HCT 116 cells) | cell viability percentage (SW-480 cells) | cell viability percentage (A549 cells) | cell viability percentage (MDA-MB-231 cells) | cell viability percentage (Huh-7 cells) | cell viability percentage (CAL 27 cells) | cell viability percentage (AGS cells) | percentage of HT-29 cells in Sub-G1 phase (HT-29 cells [2]) | amount of cyclin D1 expression (cyclin D1) | amount of p-NF-κB p65 expression (p-NF-κB p65) | cell death percentage (HT-29 cells [3])
1 | CCCCCCCC/C=C\CCCCCCCC(=O)NCCO [OEA, oleoylethanolamide] | reduced | reduced | reduced | reduced | reduced | reduced | reduced | reduced | promote HT-29 cells to be in Sub-G1 phase | reduced | reduced | elevated
2 | CC(C)=CCC/C(C)=C/C=C/C(C)=C/C=C/C(C)=C/C=C/C=C(C)/C=C/C=C(C)/C=C/C=C(\C)CCC=C(C)C [lycopene] | reduced | reduced | reduced | reduced | reduced | reduced | reduced | reduced | promote HT-29 cells to be in Sub-G1 phase | reduced | reduced | elevated
